We go through one compound from patent US20050100902A1, “5-cyano-1h-indole derivatives as antagonist of the inerleukine-8 receptors” (priority 2001, published 2005).

The structures appear in SMILES notation.

In general, melting point refers to the temperature, or range, at which the solid turns liquid.

In the case of `N#Cc1ccc2[nH]c(-c3ccc(Cl)c(Cl)c3)c(CCCC(=O)O)c2c1` [Example 1, 2-(3,4-dichlorophenyl)-5-cyano-1H-indole-3-butanoic Acid], the melting point fell in the range of 158 to 160 °C.
